One data set deals with metastatic melanoma. To be noted: 38 or 120 patients, phase 3 trial, metastatic melanoma progressed after ipilimumab; cited from earlier work.
A short description of data set [1]: Plasma pharmacokinetics of lenvatinib. The conditions noted are these: human, in vivo. The protocol: Tmax, Cmax, Ctrough, AUC0-t, CL (total body clearance from plasma), Vss (volume of distribution at steady […]), and t1/2 were evaluated.
Baseline and demographic variables including age, gender, race, height, weight, and ECOG performance score were summarized using descriptive statistics. […] Pearson and Spearman correlation coefficients were calculated between pharmacokinetic parameters and serum biomarkers at different time points compared with baseline to examine the correlation between drug exposure and biomarkers. Univariate and multivariate Cox proportional hazards models and log-rank tests were used to examine the relationship between PFS and baseline (and change from baseline) concentrations in angiogenesis and apoptosis biomarkers. Cumulative chi-square test was used to examine the correlation between mutation/serum biomarkers and best overall response. Pearson and Spearman correlation coefficients were also calculated between percent MTS (defined as percent change in sum of longest diameter from baseline to nadir using RECIST criteria) and serum biomarkers at different time points compared with baseline.

A further data set deals with solid-tumor patients. The conditions noted are these: phase 1 studies; cited from earlier work.

For “nivolumab: anti-PD1 receptor immune checkpoint inhibitor monoclonal antibody”, the Objective response rate in the data set on metastatic melanoma was 31.7%.

For `COc1cc2nccc(Oc3ccc(NC(=O)NC4CC4)c(Cl)c3)c2cc1C(N)=O` [Lenvatinib], the AUC(0-t) – broadly, exposure summed from dosing to a finite time, without extrapolation to infinity – turned out to be 3120 ng·h/mL in data set [1] (Geometric mean (%CV), DL1 lenvatinib 20 mg + TMZ 100 mg/m2, Cycle 1/Day 1, n = 6); 4120 ng·h/mL in data set [1] (Geometric mean (%CV), DL1 lenvatinib 20 mg + TMZ 100 mg/m2, Cycle 2/Day 1, n = 4); 3940 ng·h/mL in data set [1] (Mean (SD), DL3 lenvatinib 24 mg + TMZ 150 mg/m2, Cycle 1/Day 1, n = 22); 4740 ng·h/mL in data set [1] (Mean (SD), DL3 lenvatinib 24 mg + TMZ 150 mg/m2, Cycle 2/Day 1, n = 18). For the same molecule, the time to peak (Tmax) (in general, the time from dosing to the highest level) in data set [1] (Median tmax, range across the cohorts) fell in the range of 1 to 8 h. Further, the “Maximum tolerated dose (MTD)” value with solid-tumor patients was 25 mg/day.

The values above are taken from paper PMC4767496 (Oncotarget, 2015).
